Experimental data reported in patent publication US9073858B2, “Methods of targeted drug development” (priority 2010, dated 2015).
Read-outs that look alike come from different tables or passages of the source.

Columns and labels:
EGFR = molecular target: T1, EGFR (Homo sapiens, UniProt P00533); assay: EGFR in-cell Western (ICW) screening protocol; type: cell-based; design: unit not given here; details: for ICW Screen: initial screen
T1 construct: endogenous in cells; host or cells: A431 cells (ATCC CRL-1555)
T1 sequence (P00533 25-1210): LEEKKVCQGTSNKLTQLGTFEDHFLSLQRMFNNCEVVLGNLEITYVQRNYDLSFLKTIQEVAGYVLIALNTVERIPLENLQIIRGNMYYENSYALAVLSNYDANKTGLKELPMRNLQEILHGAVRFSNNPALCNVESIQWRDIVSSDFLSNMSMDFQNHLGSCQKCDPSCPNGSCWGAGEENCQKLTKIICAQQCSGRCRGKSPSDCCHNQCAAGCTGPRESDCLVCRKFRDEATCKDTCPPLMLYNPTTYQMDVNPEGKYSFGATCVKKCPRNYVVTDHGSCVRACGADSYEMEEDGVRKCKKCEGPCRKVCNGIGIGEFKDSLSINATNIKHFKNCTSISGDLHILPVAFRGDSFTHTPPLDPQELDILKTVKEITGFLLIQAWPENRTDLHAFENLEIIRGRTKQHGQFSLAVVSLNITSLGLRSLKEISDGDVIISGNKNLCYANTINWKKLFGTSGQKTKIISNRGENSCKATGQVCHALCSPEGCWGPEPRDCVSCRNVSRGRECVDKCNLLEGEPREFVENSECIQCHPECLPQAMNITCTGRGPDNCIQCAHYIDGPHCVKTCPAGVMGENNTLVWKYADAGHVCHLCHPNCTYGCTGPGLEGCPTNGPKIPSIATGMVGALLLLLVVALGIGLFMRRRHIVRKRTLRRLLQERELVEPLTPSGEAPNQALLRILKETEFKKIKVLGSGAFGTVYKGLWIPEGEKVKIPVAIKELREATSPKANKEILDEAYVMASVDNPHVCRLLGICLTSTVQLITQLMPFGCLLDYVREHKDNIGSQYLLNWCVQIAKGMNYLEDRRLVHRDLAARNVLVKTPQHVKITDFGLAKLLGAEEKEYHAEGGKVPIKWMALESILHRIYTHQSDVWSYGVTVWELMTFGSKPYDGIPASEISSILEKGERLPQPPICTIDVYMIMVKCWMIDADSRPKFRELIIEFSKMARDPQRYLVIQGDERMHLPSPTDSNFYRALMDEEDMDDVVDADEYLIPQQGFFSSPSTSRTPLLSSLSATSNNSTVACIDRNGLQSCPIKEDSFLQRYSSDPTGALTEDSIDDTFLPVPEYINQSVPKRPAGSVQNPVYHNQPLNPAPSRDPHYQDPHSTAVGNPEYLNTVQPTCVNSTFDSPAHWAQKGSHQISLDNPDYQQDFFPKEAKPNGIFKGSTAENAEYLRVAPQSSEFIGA
Experimental: The following example describes general EGFR in-cell Western (ICW) screening protocol.
Two cell plates were prepared for each compound plate.
Serum Starvation: The cells were serum starved prior to compound addition. […] The cell plates were incubated at 37° C./5% CO2 for 2 hours.
Prepared compound plates were stored at RT prior to use and at 4° C. long term.
Compound Dilution Plate Preparation: 250 μl of DMEM supplemented with 1 mg/ml BSA (Sigma A3059-10G) was added to the appropriate wells of a 96 well plate to prepare the compound dilution plates. Using a multichannel pipettor, 1.25 μl of compound from the compound plate was transferred into the compound dilution plate.
Compound Addition: The starve media was removed from the cell plates by aspiration. Using a multichannel pipettor, the compound dilution plates were mixed by pipetting up and down three times. 50 μl of mixed, diluted compound was added to each of two rows/columns on each of two cell plates. The cell plates with compound were incubated at 37° C./5% CO2 for 4 hours.
50 μl of 20 or 0 ng/ml EGF was added to the appropriate wells without the removal of compound. The compound and EGF were mixed by pipetting up and down three times.
The plates were incubated at RT for 20 min without shaking. The Fixation Solution was removed by aspiration and the plates washed four times with 200 μl each of Triton Wash Solution (1×PBS, Sigma P3813-10PK, and 0.1% Triton X-100, T8787-50ML) for 5 min with gentle shaking.
The block was removed by aspiration and 50 μl of diluted primary Ab mix was added. The plates were incubated at 4° C. overnight with gentle shaking. The plates were washed five times with 200 μl of PBST (1×PBS, Sigma P3813-10PK, and 0.1% Tween-20, Sigma P9416-50ML) for 5 min each with shaking. 50 μl of diluted secondary Ab mix was added and the plates incubated at RT for 1 h with shaking. The plates were washed 5× with 200 μl of PBST for 5 min each with shaking. One final wash with 200 μl of PBS (Sigma P3813-10PK) for 5 min with shaking was performed prior to scanning.
In some screening assays, the dilution of the secondary Ab conjugates was 1/800 rather than 1/1200.
Plate Scanning: The plates were scanned on an Odyssey Infrared Imaging System from LI-COR Biosciences. The focus offset was set at 3.5 mm and the scanning intensity set at 3 for the 700 channel and 7 for the 800 channel.
Data Analysis: The % of Maximum and % Inhibition values were calculated as follows. 700 Channel=signal for total EGFR (used to control for variation in cell number). 800 Channel=signal for phosphorylated EGFR. 800−EGF=basal level EGFR phosporylation+non-specific signal (no compound). 800+EGF=800−EGF+EGF dependent EGFR receptor phosphorylation (no compound). 700/800com=700 or 800 channel signals with compound. % Maximum={[(800com/700com)−(800−EGF/700−EGF)]/[(800+EGF/700+EGF)−(800−EGF/700−EGF)]}×100%. % Inhibition=100%−(% Maximum).

MDBK line = assay: MTT Cell Proliferation Assay, MDBK line; type: cell-based, bovine
From the text: (§1) The following example describes the MTT Cell Proliferation Assay.
(§2) The MTT Cell Proliferation Assay is a colorimetric assay system that measures the reduction of the tetrazolium salt MTT (3-(4,5-dimethylthiazol-2-yl)-2,5-diphenyltetrazolium bromide) into insoluble formazan crystals, produced by the mitochondria of viable cells. […] The color can then be quantified by spectrophotometric means. Among the applications for the method are drug sensitivity, cytotoxicity, response to growth factors, and cell activation. The reduction of tetrazolium salts is now recognized as a safe, accurate alternative to radiometric testing.
(§3) Two replicates on each cell plate and 2 duplicate plates gave 4 individual replicates of each concentration, in each cell line. Concentrations were diluted in 100% DMSO from 25 mM stocks.
(§4) Twelve 96 well plates of each cell line were plated. Plating was done by dislodging cells as in passage protocol, counting on a hemocytometer, re-suspending in standard growth media, and plating using a multichannel pippetor.
(§5) 16 μl of 25 mM stock+34 μl DMSO=8 mM starting concentrations, and serial diluted as with test compounds in same plate. […] Two replicates of each concentrations was run on each cell plate. All compound addition and cell treatments were done using aseptic technique under a laminar flow aseptic hood.
(§6) Control: 0.5% DMSO in treatment media was used as the control.
(§7) MTT dye (Thiazolyl Blue Tetrazolium Bromide, Sigma cat # M5655) stock was prepared in bulk and stored at 4° C. for use: 5 mgs/ml sterile PDS, shielded from light. 4 ul of this stock per 100 uls treatment media per well was used.
(§8) Plates were incubated overnight prior to treatment, with treatment day=Day 0. Compound treatments were prepared prior to washing cells to minimize time cells were dry at room temperature after final aspiration. Compounds were diluted in 100% DMSO in 96 well polypropylene plates:40 μl 25 mM stock+10 μl DMSO=20 mM; 20 μl of 20 mM+30 μl DMSO=8 mM; 20 μl of 8 mM+30 μl DMSO=3.2 mM; 20 μl of 3.2 mM+30 μl DMSO=1.3 mM; 20 μl of 1.3 mM+30 μl DMSO=0.51 mM.
(§9) 5.0 μl/ml were added to treatment media, in sterile, 2.2 ml deep well plates=0.5% dmso final. Ten μl of each dmso concentration was added to 2.0 ml of treatment media and then mixed using a 1200 μl multichannel pipettor. Cell plates were treated from the deep well plates. Treatment media was standard growth media containing 0.5% FBS and standard additions. This reduced FBS concentration allowed for a slower growth rate in cells.
(§10) Media was aspirated from cell plates, and washed with 200 μl/well sterile PBS. Aspirated PBS wash, and cell plates were treated with 200 μl of compound/treatment media per well, and incubated at 37° C., 5% CO2 for 3 days.
(§11) Prior to harvesting, visual observations were made under an inverted microscope. Plates were harvested by: aspirating the growth media; adding back MTT dye/100 μl treatment media; and incubating plates at 37° C. for 1 hour. MTT dye was aspirated. 100 μl/well dmso was added, and then shaken on a Bellco plate shaker for 5 minutes, at 4.5 setting.
(§12) Plates were read in a Tecan Sunrize UV plate reader, at 560 nm. Settings: Read mode, Outside Normal 2 sec; Shake settle time 3 sec. Data is reported as % inhibition, calculated for individual plates using control values from that plate.

[1] = test system: epithelial carcinoma A431 cell line; assay: MTT Cell Proliferation Assay, A431 cell line; type: cell-based; details: for MTT (10 Point follow-up) ratio / MTT-72 h A431/MDBK (ratio): value in brackets; for MTT (10 Point follow-up) ratio: numerically MDBK over A431; for MTT-72 h A431/MDBK (ratio): numerically MDBK value over A431 value
From the text: as §1, §2, §3, §4, §5, §6, §7, §8, §9, §10, §11, §12

[2] = Bos taurus, MDBK, 10 point follow-up, second value of pair, read-out: MTT (10 Point follow-up) MDBK
[3] = Bos taurus, MDBK, 72 h, second value of A431/MDBK pair, read-out: MTT-72 h MDBK
[4] = Homo sapiens, A-431, 10 point follow-up, first value of pair, read-out: MTT (10 Point follow-up) A431
[5] = Homo sapiens, A-431, 72 h, 72 h, first value of A431/MDBK pair, read-out: MTT-72 h A431

SMILES	ICW Screen (EGFR)	IC50 (MDBK line; [2])	IC50 (MDBK line; [3])	MTT (10 Point follow-up) ratio [1]	MTT-72 h A431/MDBK (ratio) ([1]; 72 h)	IC50 [1, 4]	IC50 [1, 5]	ICW Re-Test (EGFR)	IC50 (MDBK line; 72 h, second value of A431/MDBK pair, read-out: MTT-72 h MDBK)	IC50 ([1]; 72 h, first value of A431/MDBK pair, read-out: MTT-72 h A431)
Oc1c(C(Nc2ccccn2)c2cccc(Cl)c2Cl)ccc2cccnc12 (stereo not shown) [compound 10051]	36.47	0.974 µM	1.42 µM	1.79	1.80	0.545 µM	0.79 µM	–	–	–
C=CCOc1ccc(C(Nc2ccccn2)c2ccc3cccnc3c2O)cc1 (stereo not shown) [compound 10052]	43.1	9.25 µM	–	0.67	–	13.8 µM	2.35 µM	20.95	–	–
Cc1ccnc(NC(c2cccc(OCc3ccccc3)c2)c2ccc3cccnc3c2O)c1 (stereo not shown) [compound 10053]	32.85	0.44 µM	–	0.11	–	3.98 µM	–	–	–	–
Cc1ccc(C(Nc2cccc(C)n2)c2ccc3cccnc3c2O)cc1 (stereo not shown) [compound 10054]	35.84	–	5.46 µM	–	1.00	–	5.47 µM	–	–	–
Cc1cccc(NC(c2ccc3c(c2)OCO3)c2ccc3cccnc3c2O)n1 (stereo not shown) [compound 10055]	28.09	–	–	–	0.68	–	–	–	8.17 µM	12.1 µM
Cc1cccc(NC(c2ccc(F)cc2)c2ccc3cccnc3c2O)n1 (stereo not shown) [compound 10056]	34.16	–	5.18 µM	–	0.96	–	5.38 µM	44.46	–	–
Cc1cccc(NC(c2ccc(Cl)cc2)c2ccc3cccnc3c2O)n1 (stereo not shown) [compound 10058]	28.52	1.68 µM	5.83 µM	1.56	1.13	1.08 µM	5.14 µM	–	–	–
Oc1ccc(Br)c(C(Nc2ccccn2)c2ccc3cccnc3c2O)c1 (stereo not shown) [compound 10064]	9.336	2.01 µM	–	1.29	–	1.56 µM	–	–	–	–
Cc1ccnc(NC(c2ccc3cccnc3c2O)c2c(O)cccc2Cl)c1 (stereo not shown) [compound 10067]	12.5	2.95 µM	3.45 µM	2.14	1.60	1.38 µM	2.15 µM	–	–	–
CC(C)Oc1ccc(C(Nc2ccccn2)c2ccc3cccnc3c2O)cc1 (stereo not shown) [compound 10068]	29.92	–	5.19 µM	–	0.91	–	5.72 µM	–	–	–
CCOc1cc(C(Nc2cc(C)ccn2)c2ccc3ccc(C)nc3c2O)ccc1O (stereo not shown) [compound 10071]	40.85	–	10.8 µM	–	1.37	–	7.89 µM	43.19	–	–
Oc1c(C(Nc2ccccn2)c2ccccc2Br)cc(Cl)c2cccnc12 (stereo not shown) [compound 10074]	6.951	1.6 µM	–	1.16	–	1.38 µM	–	–	–	–
COc1cc(C(Nc2ccccn2)c2cc(Cl)c3cccnc3c2O)cc(I)c1O (stereo not shown) [compound 10086]	53.89	–	4.61 µM	–	0.77	–	5.96 µM	25.94	–	–
COc1cc(C(Nc2ccccn2)c2cc(Cl)c3cccnc3c2O)cc(Br)c1O (stereo not shown) [compound 10087]	62.13	5.55 µM	5.79 µM	1.18	1.11	4.7 µM	5.23 µM	41.13	–	–
Oc1c(C(Nc2ccccn2)c2cccc(F)c2)cc(Cl)c2cccnc12 (stereo not shown) [compound 10090]	21.53	2.6 µM	5.62 µM	1.48	1.06	1.76 µM	5.28 µM	–	–	–
O=C(O)c1ccc(C(Nc2ccccn2)c2cc(Cl)c3cccnc3c2O)cc1 (stereo not shown) [compound 10093]	25.13	–	21.5 µM	–	0.68	–	31.4 µM	–	–	–
